Results from article PMC10434032 (Microbiology Spectrum, 2023).
Like-named read-outs stand apart in the source and are kept apart here.

How the values were obtained:
MPXV [1] = assay: microbe, parasite or virus in culture; assay type: cell-based, Mpox virus; details: for IC50 / IC90: Monkeypox virus, Huh-7, 24 h; for IC50: read-out: Anti-MPXV activity: IC50; for IC90: read-out: Anti-MPXV activity: IC90
in vitro [2] = details: human
[3] = test system: MPXV Liberia strain (West African strain, clade IIa); assay type: cell-based, Mpox virus
vaccinia virus (LC16m8) = assay type: cell-based
MPXV [4] = assay type: cell-based, Mpox virus
ISG15 and ISG56 = assay type: cell-based, human
MPXV [5] = assay type: cell-based, Mpox virus; remark: listed apart in the source
[6] = test system: cowpox virus (Brighton Red); assay type: cell-based
MPXV [7] = assay: microbe, parasite or virus in culture; assay type: cell-based, Mpox virus; details: Monkeypox virus; for IC50: Vero C1008, read-out: Anti-MPXV activity: IC50; for IC90: Vero C1008, read-out: Anti-MPXV activity: IC90
MPXV [8] = assay type: cell-based, Mpox virus; remark: listed apart in the source
MPXV [9] = assay type: cell-based, Mpox virus; remark: listed apart in the source
[10] = test system: MPXV SPL-mpx2A7 strain (clade IIb); assay type: cell-based, Mpox virus
in vitro [11] = details: African green monkey
[12] = test system: MPXV Zr-599 (Congo Basin strain, clade I); assay type: cell-based, Mpox virus

Compound | IC50 (MPXV [1]) | IC90 (MPXV [1]) | CC50 (in vitro [2]) | expression of viral proteins (immunofluorescence) [3] | expression of viral proteins (immunofluorescence) (vaccinia virus (LC16m8)) | antiviral activity by treatment period (a whole life cycle 0-24 h, b entry phase 0-2 h, c postentry 2-24 h) (MPXV [4]) | virions observed in cells by electron microscopy (MPXV [5]) | expression of viral proteins (immunofluorescence) [6] | IC50 (MPXV [7]) | IC90 (MPXV [7]) | MPXV protein expression (immunofluorescence) (MPXV [8]) | expression of viral proteins (immunofluorescence) [10] | CC50 (in vitro [11]) | other results
CC[C@H](CC#N)OC(=O)N[C@@H](C)c1cccc(NC(=O)Nc2ccc(-c3cnco3)c(OC)c2)c1 [AVN-944] | 15 nM | 42 nM | > 10 µM | – | – | – | – | – | – | – | – | – | – | –
COc1c(C)c2c(c(O)c1C/C=C(\C)CCC(=O)O)C(=O)OC2 [MPA, mycophenolic acid] | 940 nM | 3350 nM | > 10 µM | clearly reduced | clearly reduced | significantly reduced under conditions a and c but not under condition b | few virions were observed | clearly reduced | 260 nM | 370 nM | drastically reduced | clearly reduced | > 100 µM | selectivity index (SI = CC50/IC50) (MPXV [1]): > 10.6; induction of interferon-stimulated genes ISG15 and ISG56 (ISG15 and ISG56): did not observe significant induction; effect of guanosine supplementation on MPA-mediated reduction of viral DNA levels (MPXV [9]): clearly recovered the MPA-mediated reduction of viral DNA levels in a dose-dependent manner
COc1cc(NC(=O)Nc2cccc(CNC(=O)O[C@H]3CCOC3)c2)ccc1-c1cnco1 [Merimepodib, merimepodib] | 290 nM | 610 nM | > 10 µM | – | – | – | – | – | – | – | – | – | – | –
COc1c(C)c2c(c(O)c1C/C=C(\C)CCC(=O)OCCN1CCOCC1)C(=O)OC2 [Mycophenolate mofetil, mycophenolate mofetil] | 340 nM | 1080 nM | > 10 µM | – | – | – | – | – | – | – | – | – | – | –
NC(=O)c1ncn([C@@H]2O[C@H](CO)[C@@H](O)[C@H]2O)n1 [Ribavirin, ribavirin] | 13000 nM | 44000 nM | > 100 µM | – | – | – | – | – | – | – | – | – | – | –
CCCCCCCCCCCCCCCCOCCCOP(=O)(O)CO[C@H](CO)Cn1ccc(N)nc1=O [brincidofovir] | – | – | – | – | – | significant antiviral activity in conditions a and c but not in condition b | – | – | 2100 nM | 4290 nM | – | – | > 10 µM | number of surviving cells (fold relative to DMSO-treated control cells) [12]: 103 fold
Nc1ccn([C@@H]2O[C@H](CO)[C@@H](O)C2(F)F)c(=O)n1 [gemcitabine] | – | – | – | clearly reduced | clearly reduced | significantly reduced under conditions a and c but not under condition b | few virions were observed | clearly reduced | 24 nM | 26 nM | drastically reduced | clearly reduced | > 100 µM | –
O=C(NN1C(=O)[C@@H]2[C@@H]3C=C[C@@H]([C@H]4C[C@@H]34)[C@@H]2C1=O)c1ccc(C(F)(F)F)cc1 [tecovirimat] | – | – | – | – | – | – | crescents, immature, and mature virions but not wrapped virions were observed | – | – | – | – | – | – | number of surviving cells (fold relative to DMSO-treated control cells) [12]: 223 fold
O=c1[nH]c(=O)n([C@H]2C[C@H](O)[C@@H](CO)O2)cc1C(F)(F)F [trifluridine] | – | – | – | clearly reduced | clearly reduced | significantly reduced under conditions a and c but not under condition b | few virions were observed | clearly reduced | 490 nM | 890 nM | drastically reduced | clearly reduced | > 100 µM | –
heparin | – | – | – | – | – | significant antiviral activity under condition b | – | – | – | – | – | – | – | –
